Data on four compounds can be found in ChEMBL document CHEMBL1128170, “Stereochemistry of the benzodiazepine based Ras farnesyltransferase inhibitors” (Bioorg Med Chem Lett, 1995).

For the experiment, the target named is Protein farnesyltransferase (Rattus norvegicus, UniProt Q02293+Q04631). In words: Tested for inhibitory activity against rat brain p21ras Ras Farnesyltransferase (FTase).
Compound `CSCC[C@H](NC(=O)CN1C(=O)[C@H](N(C)C(=O)[C@@H](N)CS)N=C(c2ccccc2)c2ccccc21)C(=O)O` (stereo in doubt; form 1) had an IC50 of 370 nM. As to `CSCC[C@H](NC(=O)CN1C(=O)[C@H](N(C)C(=O)[C@@H](N)CS)N=C(c2ccccc2)c2ccccc21)C(=O)O` (stereo in doubt; form 2), the midpoint of inhibition, the IC50, lay at 0.85 nM. Compound `CSCC[C@@H](NC(=O)CN1C(=O)[C@H](N(C)C(=O)[C@@H](N)CS)N=C(c2ccccc2)c2ccccc21)C(=O)O` yielded an IC50 of 80 nM. Turning to `CSCC[C@H](NC(=O)CN1C(=O)[C@H](N(C)C(=O)[C@@H](N)CS)N=C(c2ccccc2)c2ccccc21)C(=O)O` (stereo in doubt; form 3), the IC50 stood at 2.1 nM.
